# Laboratory results as given in article PMC4014121, “Structure of sulfamidase provides insight into the molecular pathology of mucopolysaccharidosis IIIA” (Acta Crystallographica Section D: Biological Crystallography, 2014).
# Target: T1, SGSH (sulfamidase; N-sulfoglucosamine sulfohydrolase) (Homo sapiens, UniProt P51688)
# T1 construct: full-length cDNA with C-terminal RSHHHHHH (residues 503-510), tag kept; secreted from HEK 293 cells, HisTrap purified; signal peptide removed (modelled from residue 21/22); glycosylated; Cys70 converted to formylglycine; homodimer, 55 kDa unglycosylated subunit
# T1 sequence (P51688 21-502): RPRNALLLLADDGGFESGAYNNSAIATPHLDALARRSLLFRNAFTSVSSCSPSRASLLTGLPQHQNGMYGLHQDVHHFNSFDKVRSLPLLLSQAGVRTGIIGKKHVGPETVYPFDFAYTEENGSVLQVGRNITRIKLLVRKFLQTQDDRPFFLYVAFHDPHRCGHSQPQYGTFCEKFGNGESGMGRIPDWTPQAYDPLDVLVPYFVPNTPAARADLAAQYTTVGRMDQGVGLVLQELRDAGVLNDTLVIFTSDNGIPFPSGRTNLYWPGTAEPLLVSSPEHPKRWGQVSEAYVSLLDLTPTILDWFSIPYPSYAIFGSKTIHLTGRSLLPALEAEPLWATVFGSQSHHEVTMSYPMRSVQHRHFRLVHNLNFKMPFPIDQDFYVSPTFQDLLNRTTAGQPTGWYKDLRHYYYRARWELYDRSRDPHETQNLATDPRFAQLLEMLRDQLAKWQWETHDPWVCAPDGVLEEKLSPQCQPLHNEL
# Assay: two-step fluorometric assay with MU-alphaGlcNS, alpha-glucosidase coupled
# Type: biochemical
row,IC50 [µM],SMILES
1,1000,O=P(O)(O)O [phosphate]
2,5000,O=S(=O)(O)O [sulfate]
